Data published in the kinase profiling compilation of Christmann-Franck et al. (2016).

Columns and labels:
Assay in all cases: KINOMEscan competition binding
Details in all cases: compound 10.0 µM
[1] = molecular target: ACVR1 (human) (UniProt Q04771)
[2] = molecular target: MAPK11 (human) (UniProt Q15759)
[3] = molecular target: RPS6KA1 KD2 (human) (UniProt Q15418)
[4] = molecular target: ACVR2B (human) (UniProt Q13705)
[5] = molecular target: NUAK2 (human) (UniProt Q9H093)
[6] = tested on: EGFR (human), P00533 [P753S; 747-752 del]
[7] = molecular target: JAK2 JH1 catalytic (human) (UniProt O60674)
[8] = molecular target: RAF1 (human) (UniProt P04049)
[9] = molecular target: CLK2 (human) (UniProt P49760)
[10] = molecular target: CSF1R (human) (UniProt P07333)
[11] = molecular target: HIPK1 (human) (UniProt Q86Z02)
[12] = molecular target: TAOK3 (human) (UniProt Q9H2K8)
[13] = molecular target: MAP3K7 (human) (UniProt O43318)
[14] = molecular target: MAPK10 (human) (UniProt P53779)
[15] = molecular target: MAP3K5 (human) (UniProt Q99683)
[16] = molecular target: EPHA8 (human) (UniProt P29322)
[17] = molecular target: MYO3B (human) (UniProt Q8WXR4)
[18] = molecular target: CAMKK2 (human) (UniProt Q96RR4)
[19] = molecular target: MUSK (human) (UniProt O15146)
[20] = molecular target: MAP3K10 (human) (UniProt Q02779)
[21] = molecular target: TYK2 JH2 pseudokinase (human) (UniProt P29597)
[22] = tested on: PIK3CA (human), P42336 [E545K]
[23] = molecular target: FER (human) (UniProt P16591)
[24] = molecular target: TEK (human) (UniProt Q02763)
[25] = molecular target: AURKC (human) (UniProt Q9UQB9)
[26] = molecular target: PTK2B (human) (UniProt Q14289)
[27] = molecular target: DCLK1 (human) (UniProt O15075)
[28] = molecular target: CAMKK1 (human) (UniProt Q8N5S9)
[29] = molecular target: MAPK4 (human) (UniProt P31152)
[30] = molecular target: AAK1 (human) (UniProt Q2M2I8)
[31] = tested on: EIF2AK4 KD2 (human), Q9P2K8 [S808G]
[32] = molecular target: CSNK1G3 (human) (UniProt Q9Y6M4)
[33] = molecular target: RIPK2 (human) (UniProt O43353)
[34] = molecular target: PHKG1 (human) (UniProt Q16816)
[35] = molecular target: STK17A (human) (UniProt Q9UEE5)
[36] = molecular target: CDK2 (human) (UniProt P24941)
[37] = molecular target: EPHB3 (human) (UniProt P54753)
[38] = molecular target: JAK3 JH1 catalytic (human) (UniProt P52333)
[39] = molecular target: CHUK (human) (UniProt O15111)
[40] = molecular target: CDK11A (human) (UniProt Q9UQ88)
[41] = molecular target: MAP3K4 (human) (UniProt Q9Y6R4)
[42] = molecular target: STK33 (human) (UniProt Q9BYT3)

Sequence of CLK2 (human) (P49760 whole entry, looked up): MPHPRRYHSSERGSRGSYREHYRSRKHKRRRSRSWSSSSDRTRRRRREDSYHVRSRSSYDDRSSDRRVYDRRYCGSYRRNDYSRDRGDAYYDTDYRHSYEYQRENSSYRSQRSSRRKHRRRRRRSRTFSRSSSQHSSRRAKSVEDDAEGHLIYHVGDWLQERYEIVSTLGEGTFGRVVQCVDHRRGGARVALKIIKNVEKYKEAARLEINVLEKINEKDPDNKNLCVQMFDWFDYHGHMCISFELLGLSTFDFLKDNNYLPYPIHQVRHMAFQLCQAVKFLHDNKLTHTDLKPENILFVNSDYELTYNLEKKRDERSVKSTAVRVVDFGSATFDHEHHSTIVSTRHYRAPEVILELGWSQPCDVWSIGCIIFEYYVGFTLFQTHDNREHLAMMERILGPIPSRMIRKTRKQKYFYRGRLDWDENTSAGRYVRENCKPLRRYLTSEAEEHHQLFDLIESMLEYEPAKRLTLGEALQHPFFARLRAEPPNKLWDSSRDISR
Sequence of RIPK2 (human) (O43353 whole entry, looked up): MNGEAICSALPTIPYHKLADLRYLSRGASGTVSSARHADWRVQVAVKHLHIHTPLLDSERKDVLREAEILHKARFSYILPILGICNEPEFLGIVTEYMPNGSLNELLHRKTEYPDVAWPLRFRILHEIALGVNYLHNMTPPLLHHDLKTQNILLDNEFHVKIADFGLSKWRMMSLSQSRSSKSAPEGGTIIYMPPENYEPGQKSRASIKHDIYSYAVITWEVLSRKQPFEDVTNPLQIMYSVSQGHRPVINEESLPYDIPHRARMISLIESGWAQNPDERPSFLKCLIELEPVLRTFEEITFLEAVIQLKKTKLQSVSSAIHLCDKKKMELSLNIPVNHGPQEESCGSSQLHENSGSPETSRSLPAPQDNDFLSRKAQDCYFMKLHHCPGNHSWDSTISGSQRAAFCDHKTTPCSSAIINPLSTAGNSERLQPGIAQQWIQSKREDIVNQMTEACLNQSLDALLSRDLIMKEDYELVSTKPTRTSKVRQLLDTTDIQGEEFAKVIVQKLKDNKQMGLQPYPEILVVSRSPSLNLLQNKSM
Sequence of TYK2 JH2 pseudokinase (human) (P29597 whole entry, looked up): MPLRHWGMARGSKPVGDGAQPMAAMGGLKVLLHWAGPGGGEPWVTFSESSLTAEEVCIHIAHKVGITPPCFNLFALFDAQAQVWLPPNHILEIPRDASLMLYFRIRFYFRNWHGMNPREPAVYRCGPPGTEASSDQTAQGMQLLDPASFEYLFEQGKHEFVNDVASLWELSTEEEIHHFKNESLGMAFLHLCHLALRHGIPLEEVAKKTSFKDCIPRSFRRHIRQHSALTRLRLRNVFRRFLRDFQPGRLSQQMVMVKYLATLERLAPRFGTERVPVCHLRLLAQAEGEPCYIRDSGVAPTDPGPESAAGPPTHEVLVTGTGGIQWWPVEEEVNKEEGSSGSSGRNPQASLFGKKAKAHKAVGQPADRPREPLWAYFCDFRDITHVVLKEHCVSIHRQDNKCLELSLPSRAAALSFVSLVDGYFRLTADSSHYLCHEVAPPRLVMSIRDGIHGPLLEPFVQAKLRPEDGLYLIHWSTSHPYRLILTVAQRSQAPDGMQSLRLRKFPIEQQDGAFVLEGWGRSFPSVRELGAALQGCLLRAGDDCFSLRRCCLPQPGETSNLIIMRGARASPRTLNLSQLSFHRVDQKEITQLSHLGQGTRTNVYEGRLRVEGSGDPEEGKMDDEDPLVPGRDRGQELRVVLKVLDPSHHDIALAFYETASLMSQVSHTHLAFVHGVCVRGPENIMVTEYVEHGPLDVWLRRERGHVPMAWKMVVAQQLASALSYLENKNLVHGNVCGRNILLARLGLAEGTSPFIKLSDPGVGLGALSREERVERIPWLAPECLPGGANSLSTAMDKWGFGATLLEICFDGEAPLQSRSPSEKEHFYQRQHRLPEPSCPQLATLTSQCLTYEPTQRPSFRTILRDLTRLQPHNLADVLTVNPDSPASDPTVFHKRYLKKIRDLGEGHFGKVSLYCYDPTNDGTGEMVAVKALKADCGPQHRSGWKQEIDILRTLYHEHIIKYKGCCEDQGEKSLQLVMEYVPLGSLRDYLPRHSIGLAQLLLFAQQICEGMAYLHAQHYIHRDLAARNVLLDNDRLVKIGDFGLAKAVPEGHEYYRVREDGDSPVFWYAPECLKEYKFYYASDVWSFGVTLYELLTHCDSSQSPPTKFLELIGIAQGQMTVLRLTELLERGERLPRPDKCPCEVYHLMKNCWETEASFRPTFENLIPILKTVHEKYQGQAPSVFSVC
Sequence of CAMKK2 (human) (Q96RR4 whole entry, looked up): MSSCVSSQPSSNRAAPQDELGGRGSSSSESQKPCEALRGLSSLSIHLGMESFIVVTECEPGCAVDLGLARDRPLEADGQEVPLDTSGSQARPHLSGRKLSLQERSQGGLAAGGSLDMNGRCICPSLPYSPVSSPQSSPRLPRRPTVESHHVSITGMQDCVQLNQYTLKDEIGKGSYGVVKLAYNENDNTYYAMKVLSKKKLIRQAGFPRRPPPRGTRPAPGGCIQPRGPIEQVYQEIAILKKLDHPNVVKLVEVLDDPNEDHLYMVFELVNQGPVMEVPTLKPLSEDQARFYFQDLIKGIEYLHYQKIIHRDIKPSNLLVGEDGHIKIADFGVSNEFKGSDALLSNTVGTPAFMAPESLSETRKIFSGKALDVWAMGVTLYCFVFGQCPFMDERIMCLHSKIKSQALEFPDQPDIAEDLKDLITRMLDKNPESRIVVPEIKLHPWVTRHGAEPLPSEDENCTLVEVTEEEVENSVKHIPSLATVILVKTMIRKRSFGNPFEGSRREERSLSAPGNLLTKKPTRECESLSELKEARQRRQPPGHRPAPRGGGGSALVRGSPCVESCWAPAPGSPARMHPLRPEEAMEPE
Sequence of EIF2AK4 KD2 (human), Q9P2K8 [S808G] (Q9P2K8 whole entry S808G, looked up): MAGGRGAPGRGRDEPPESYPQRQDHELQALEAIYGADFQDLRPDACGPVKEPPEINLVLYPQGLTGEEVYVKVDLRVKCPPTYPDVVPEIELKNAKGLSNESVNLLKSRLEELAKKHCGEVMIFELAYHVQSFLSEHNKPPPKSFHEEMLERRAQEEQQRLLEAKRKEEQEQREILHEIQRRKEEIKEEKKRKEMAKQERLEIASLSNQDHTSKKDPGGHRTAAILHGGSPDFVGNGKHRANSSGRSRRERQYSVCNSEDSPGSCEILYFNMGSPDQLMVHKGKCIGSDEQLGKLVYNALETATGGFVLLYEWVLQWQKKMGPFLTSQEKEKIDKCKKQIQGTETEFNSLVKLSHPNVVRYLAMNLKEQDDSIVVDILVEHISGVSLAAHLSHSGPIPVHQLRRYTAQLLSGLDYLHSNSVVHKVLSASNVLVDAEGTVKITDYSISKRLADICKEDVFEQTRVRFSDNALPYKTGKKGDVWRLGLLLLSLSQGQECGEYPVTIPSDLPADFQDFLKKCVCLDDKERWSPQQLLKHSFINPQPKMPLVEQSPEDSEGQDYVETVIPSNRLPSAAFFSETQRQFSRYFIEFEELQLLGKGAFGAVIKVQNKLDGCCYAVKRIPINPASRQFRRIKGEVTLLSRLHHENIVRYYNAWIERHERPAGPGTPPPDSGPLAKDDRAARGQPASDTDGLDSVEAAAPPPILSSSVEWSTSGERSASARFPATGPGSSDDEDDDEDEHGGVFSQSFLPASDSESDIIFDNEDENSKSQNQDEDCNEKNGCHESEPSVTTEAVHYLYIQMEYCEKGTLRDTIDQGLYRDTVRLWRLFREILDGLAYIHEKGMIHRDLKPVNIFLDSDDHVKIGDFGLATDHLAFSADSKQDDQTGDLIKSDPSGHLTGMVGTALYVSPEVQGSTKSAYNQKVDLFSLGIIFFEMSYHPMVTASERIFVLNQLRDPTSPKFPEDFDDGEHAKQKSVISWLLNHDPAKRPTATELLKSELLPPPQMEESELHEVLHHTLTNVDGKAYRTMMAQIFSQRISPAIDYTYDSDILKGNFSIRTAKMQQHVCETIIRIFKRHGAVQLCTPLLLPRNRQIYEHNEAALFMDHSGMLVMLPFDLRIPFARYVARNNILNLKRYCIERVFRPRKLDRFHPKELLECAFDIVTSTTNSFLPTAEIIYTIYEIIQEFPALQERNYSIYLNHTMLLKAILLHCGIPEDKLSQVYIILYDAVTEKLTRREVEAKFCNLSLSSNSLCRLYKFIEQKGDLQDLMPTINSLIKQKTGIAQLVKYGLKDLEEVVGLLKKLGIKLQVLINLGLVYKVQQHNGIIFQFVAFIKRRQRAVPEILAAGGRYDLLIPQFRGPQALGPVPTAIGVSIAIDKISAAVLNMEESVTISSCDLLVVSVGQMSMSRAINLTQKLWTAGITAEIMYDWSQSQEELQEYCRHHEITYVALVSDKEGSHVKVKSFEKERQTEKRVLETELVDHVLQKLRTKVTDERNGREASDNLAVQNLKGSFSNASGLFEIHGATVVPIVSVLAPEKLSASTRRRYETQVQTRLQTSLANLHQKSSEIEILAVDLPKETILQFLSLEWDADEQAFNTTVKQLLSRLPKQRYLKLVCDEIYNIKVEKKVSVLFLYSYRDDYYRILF
Sequence of MAP3K7 (human) (O43318 whole entry, looked up): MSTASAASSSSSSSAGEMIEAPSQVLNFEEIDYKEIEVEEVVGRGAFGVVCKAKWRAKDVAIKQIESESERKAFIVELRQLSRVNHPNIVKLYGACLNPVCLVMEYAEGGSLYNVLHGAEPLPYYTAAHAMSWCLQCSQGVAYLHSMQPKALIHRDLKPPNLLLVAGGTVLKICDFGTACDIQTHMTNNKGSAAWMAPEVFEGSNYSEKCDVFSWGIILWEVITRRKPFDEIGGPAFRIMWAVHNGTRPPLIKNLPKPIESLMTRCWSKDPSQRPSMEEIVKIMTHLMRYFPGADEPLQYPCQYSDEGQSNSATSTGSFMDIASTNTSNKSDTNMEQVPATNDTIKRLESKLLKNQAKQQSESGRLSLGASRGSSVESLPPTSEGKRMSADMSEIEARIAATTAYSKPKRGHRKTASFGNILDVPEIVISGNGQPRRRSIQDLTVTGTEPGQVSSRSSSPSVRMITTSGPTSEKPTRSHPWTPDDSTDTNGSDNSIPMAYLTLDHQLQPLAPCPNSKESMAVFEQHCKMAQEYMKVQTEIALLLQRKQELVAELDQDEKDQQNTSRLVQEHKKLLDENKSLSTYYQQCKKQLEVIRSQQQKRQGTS

Q: COc1cc(N2CCN(C)CC2)ccc1Nc1ncc2c(n1)N(C)c1ccccc1N(C)C2=O was tested. Which kinase still bound, per cent of control [1] did it give?
A: Its kinase still bound, per cent of control is 100%.

Q: What about the kinase still bound, per cent of control [2] of the same molecule?
A: The kinase still bound, per cent of control was 100%.

Q: What about the kinase still bound, per cent of control [3] of the same molecule?
A: Its kinase still bound, per cent of control is 56%.

Q: What about the kinase still bound, per cent of control [4] of the same molecule?
A: The kinase still bound, per cent of control was 92%.

Q: What about the kinase still bound, per cent of control [5] of the same molecule?
A: Its kinase still bound, per cent of control is 100%.

Q: And the kinase still bound, per cent of control [6]?
A: Its kinase still bound, per cent of control is 100%.

Q: What about the kinase still bound, per cent of control [7] of the same molecule?
A: Its kinase still bound, per cent of control is 100%.

Q: What about the kinase still bound, per cent of control [8] of the same molecule?
A: Its kinase still bound, per cent of control is 94%.

Q: And the kinase still bound, per cent of control [9]?
A: Its kinase still bound, per cent of control is 81%.

Q: And the kinase still bound, per cent of control [10]?
A: The kinase still bound, per cent of control was 27%.

Q: What about the kinase still bound, per cent of control [11] of the same molecule?
A: Its kinase still bound, per cent of control is 68%.

Q: What about the kinase still bound, per cent of control [12] of the same molecule?
A: Its kinase still bound, per cent of control is 67%.

Q: And the kinase still bound, per cent of control [13]?
A: Its kinase still bound, per cent of control is 100%.

Q: And the kinase still bound, per cent of control [14]?
A: The kinase still bound, per cent of control was 85%.

Q: And the kinase still bound, per cent of control [15]?
A: The kinase still bound, per cent of control was 100%.

Q: What about the kinase still bound, per cent of control [16] of the same molecule?
A: The kinase still bound, per cent of control was 100%.

Q: And the kinase still bound, per cent of control [17]?
A: The kinase still bound, per cent of control was 89%.

Q: What about the kinase still bound, per cent of control [18] of the same molecule?
A: The kinase still bound, per cent of control was 53%.

Q: And the kinase still bound, per cent of control [19]?
A: The kinase still bound, per cent of control was 100%.

Q: And the kinase still bound, per cent of control [20]?
A: The kinase still bound, per cent of control was 100%.

Q: What about the kinase still bound, per cent of control [21] of the same molecule?
A: Its kinase still bound, per cent of control is 100%.

Q: What about the kinase still bound, per cent of control [22] of the same molecule?
A: Its kinase still bound, per cent of control is 97%.

Q: And the kinase still bound, per cent of control [23]?
A: The kinase still bound, per cent of control was 80%.

Q: What about the kinase still bound, per cent of control [24] of the same molecule?
A: Its kinase still bound, per cent of control is 100%.

Q: And the kinase still bound, per cent of control [25]?
A: The kinase still bound, per cent of control was 86%.

Q: And the kinase still bound, per cent of control [26]?
A: The kinase still bound, per cent of control was 100%.

Q: And the kinase still bound, per cent of control [27]?
A: The kinase still bound, per cent of control was 56%.

Q: And the kinase still bound, per cent of control [28]?
A: Its kinase still bound, per cent of control is 73%.

Q: And the kinase still bound, per cent of control [29]?
A: The kinase still bound, per cent of control was 100%.

Q: And the kinase still bound, per cent of control [30]?
A: The kinase still bound, per cent of control was 88%.

Q: And the kinase still bound, per cent of control [31]?
A: The kinase still bound, per cent of control was 100%.

Q: And the kinase still bound, per cent of control [32]?
A: Its kinase still bound, per cent of control is 98%.

Q: What about the kinase still bound, per cent of control [33] of the same molecule?
A: Its kinase still bound, per cent of control is 100%.

Q: And the kinase still bound, per cent of control [34]?
A: The kinase still bound, per cent of control was 54%.

Q: And the kinase still bound, per cent of control [35]?
A: Its kinase still bound, per cent of control is 100%.

Q: And the kinase still bound, per cent of control [36]?
A: The kinase still bound, per cent of control was 75%.

Q: And the kinase still bound, per cent of control [37]?
A: The kinase still bound, per cent of control was 100%.

Q: What about the kinase still bound, per cent of control [38] of the same molecule?
A: Its kinase still bound, per cent of control is 100%.

Q: And the kinase still bound, per cent of control [39]?
A: Its kinase still bound, per cent of control is 60%.

Q: And the kinase still bound, per cent of control [40]?
A: The kinase still bound, per cent of control was 80%.

Q: And the kinase still bound, per cent of control [41]?
A: Its kinase still bound, per cent of control is 100%.

Q: And the kinase still bound, per cent of control [42]?
A: The kinase still bound, per cent of control was 58%.

Q: Which kinase still bound, per cent of control [1] does the source give for COc1cc(N2CCN(C)CC2)ccc1Nc1ncc2c(n1)N(C)c1sccc1C(=O)N2C here?
A: Its kinase still bound, per cent of control is 94%.

Q: What about the kinase still bound, per cent of control [2] of the same molecule?
A: Its kinase still bound, per cent of control is 85%.

Q: And the kinase still bound, per cent of control [3]?
A: Its kinase still bound, per cent of control is 24%.

Q: What about the kinase still bound, per cent of control [4] of the same molecule?
A: The kinase still bound, per cent of control was 100%.

Q: What about the kinase still bound, per cent of control [5] of the same molecule?
A: Its kinase still bound, per cent of control is 8%.

Q: And the kinase still bound, per cent of control [6]?
A: The kinase still bound, per cent of control was 82%.

Q: And the kinase still bound, per cent of control [7]?
A: Its kinase still bound, per cent of control is 34%.

Q: What about the kinase still bound, per cent of control [8] of the same molecule?
A: Its kinase still bound, per cent of control is 94%.

Q: What about the kinase still bound, per cent of control [9] of the same molecule?
A: Its kinase still bound, per cent of control is 78%.

Q: What about the kinase still bound, per cent of control [10] of the same molecule?
A: Its kinase still bound, per cent of control is 54%.

Q: What about the kinase still bound, per cent of control [11] of the same molecule?
A: Its kinase still bound, per cent of control is 67%.

Q: What about the kinase still bound, per cent of control [12] of the same molecule?
A: Its kinase still bound, per cent of control is 13%.

Q: What about the kinase still bound, per cent of control [13] of the same molecule?
A: Its kinase still bound, per cent of control is 81%.

Q: What about the kinase still bound, per cent of control [14] of the same molecule?
A: Its kinase still bound, per cent of control is 70%.

Q: What about the kinase still bound, per cent of control [15] of the same molecule?
A: The kinase still bound, per cent of control was 74%.

Q: And the kinase still bound, per cent of control [16]?
A: Its kinase still bound, per cent of control is 89%.

Q: What about the kinase still bound, per cent of control [17] of the same molecule?
A: Its kinase still bound, per cent of control is 52%.

Q: And the kinase still bound, per cent of control [18]?
A: The kinase still bound, per cent of control was 34%.

Q: What about the kinase still bound, per cent of control [19] of the same molecule?
A: Its kinase still bound, per cent of control is 100%.

Q: What about the kinase still bound, per cent of control [20] of the same molecule?
A: The kinase still bound, per cent of control was 97%.

Q: And the kinase still bound, per cent of control [21]?
A: The kinase still bound, per cent of control was 43%.

Q: And the kinase still bound, per cent of control [22]?
A: Its kinase still bound, per cent of control is 74%.

Q: And the kinase still bound, per cent of control [23]?
A: Its kinase still bound, per cent of control is 36%.

Q: And the kinase still bound, per cent of control [24]?
A: The kinase still bound, per cent of control was 88%.

Q: And the kinase still bound, per cent of control [25]?
A: Its kinase still bound, per cent of control is 82%.

Q: And the kinase still bound, per cent of control [26]?
A: Its kinase still bound, per cent of control is 88%.

Q: And the kinase still bound, per cent of control [27]?
A: The kinase still bound, per cent of control was 1.4%.

Q: And the kinase still bound, per cent of control [28]?
A: The kinase still bound, per cent of control was 57%.

Q: And the kinase still bound, per cent of control [29]?
A: The kinase still bound, per cent of control was 66%.

Q: What about the kinase still bound, per cent of control [30] of the same molecule?
A: Its kinase still bound, per cent of control is 75%.

Q: What about the kinase still bound, per cent of control [31] of the same molecule?
A: Its kinase still bound, per cent of control is 82%.

Q: And the kinase still bound, per cent of control [32]?
A: The kinase still bound, per cent of control was 82%.

Q: What about the kinase still bound, per cent of control [33] of the same molecule?
A: Its kinase still bound, per cent of control is 92%.

Q: And the kinase still bound, per cent of control [34]?
A: Its kinase still bound, per cent of control is 69%.

Q: What about the kinase still bound, per cent of control [35] of the same molecule?
A: Its kinase still bound, per cent of control is 96%.

Q: What about the kinase still bound, per cent of control [36] of the same molecule?
A: The kinase still bound, per cent of control was 92%.

Q: What about the kinase still bound, per cent of control [37] of the same molecule?
A: The kinase still bound, per cent of control was 93%.

Q: What about the kinase still bound, per cent of control [38] of the same molecule?
A: Its kinase still bound, per cent of control is 100%.

Q: What about the kinase still bound, per cent of control [39] of the same molecule?
A: The kinase still bound, per cent of control was 46%.

Q: And the kinase still bound, per cent of control [40]?
A: The kinase still bound, per cent of control was 95%.

Q: What about the kinase still bound, per cent of control [41] of the same molecule?
A: Its kinase still bound, per cent of control is 71%.

Q: What about the kinase still bound, per cent of control [42] of the same molecule?
A: Its kinase still bound, per cent of control is 1.2%.
